US20110207691A1, “COBALAMIN COMPOSITIONS FOR THE TREATMENT OF CANCER” (BEBAAS, INC., priority 2006, published 2011)
Where “and” joins values, the source holds several entries; their conditions need not be identical. Equal values may be shown once.

Columns and labels:
[1] = tested on: BD-MB231 breast cancer cells; assay: Cell survival count after treatment, BD-MB231 breast cancer cells; assay type: cell-based; details: cultures grown for 48 hours, then counted
Method: Cell cultures were grown and maintained using standard protocols for the respective cell line. Suitable culturing methods are described in, for example, Cancer Cell Culture: Method and Protocols (Methods in Molecular Medicine) Langdon (Ed) Humana Press, 2003 and General Techniques of Cell Culture (Handbooks in Practical Animal Cell Biology) Harrison and Rae, Cambridge University Press, 2005. Cultures were grown for 48 hours and subsequently counted to determine the number surviving after treatment with hydroxycobalamin, methylcobalamin or adenosylcobalamin and the aforementioned cobalamin analogs in combination with a nitric oxide-cobalamin complex. Determination of cell survival can be accomplished using, for example, a hemocytometer and Trypan Blue staining. […] Total number of cells can be determined living and dead cells can be determined and treatments compared.

WM9 melanoma cells = details: cited from earlier work

In the case of `C/C1=C2/[N-][C@H]([C@H](CC(N)=O)[C@@]2(C)CCC(=O)NC[C@@H](C)OP(=O)([O-])O[C@H]2[C@@H](O)[C@@H](n3cnc4cc(C)c(C)cc43)O[C@@H]2CO)[C@]2(C)N=C(/C(C)=C3N=C(/C=C4N=C1[C@@H](CCC(N)=O)C\4(C)C)[C@@H](CCC(N)=O)[C@]\3(C)CC(N)=O)[C@@H](CCC(N)=O)[C@]2(C)CC(N)=O.[Co+3].[OH-]` [hydroxycobalamin], the “number of surviving cells (mean)” value [1] is reported as 472 and 729 and 728.
In the case of nitrosylcobalamin, the “effect on WM9 melanoma cells” value (WM9 melanoma cells) is listed as “anti-proliferative effect”.
